Consider one compound from patent publication US20230270148A1, “BITTER BLOCKERS AND RELATED METHODS OF USE” (Conagen Inc., priority 2020, published 2023).

Experiment [1] relates to cough syrup DELSYM (dextromethorphan HBr). Nature of the experiment: Sensory evaluation: bitterness reduction of cough syrup DELSYM. It counts as in vivo. Conditions: dosage 50 or 100 ppm per sample. As for the experimental part:
The bitterness blocker candidates listed in Table 1 were prepared into a 1% sample solution with propylene glycol and heated to ensure complete solubilization. […] Individually, the respective sample solution was added to a cough syrup sold under the trade name DELSYM®. The bitter-tasting agent contained in the cough syrup were dextromethorphan HBr USP 30 mg (as measured for each 5 ml teaspoon, i.e., 6000 mg/l of dextromethorphan). A trained sensory evaluator was asked to estimate the perceived bitterness reduction against the control, as well as to provide comments on how the addition of the individual sample solution modulated the taste and mouth feel profile of the resulting cough syrup.

Experiment [2] concerns THC nanoemulsion. Nature of the experiment: Sensory evaluation: bitterness reduction of THC. Conditions: dosage 50 or 100 ppm per sample. It counts as in vivo. As for the experimental part:
The bitterness blocker candidates listed in Table 1 were prepared into a 1% sample solution with propylene glycol and heated to ensure complete solubilization. […] THC was first emulsified into a water-soluble nanoemulsion (10 mg THC per serving), to which was added the respective sample solution. A trained sensory evaluator was asked to estimate the perceived bitterness reduction against the control, as well as to provide comments on how the addition of the individual sample solution modulated the taste and mouth feel profile of the resulting nanoemulsion.

For `COc1cc([C@@H]2CC(=O)c3c(O)cc(O)cc3O2)ccc1O[C@@H]1O[C@H](CO)[C@@H](O)[C@H](O)[C@H]1O` [BB11, Homoeriodictyol 4′-O-glucoside], the “Estimated % bitterness reduction” value in experiment [1] (6000 mg/l of dextromethorphan) and in experiment [2] (THC nanoemulsion (10 mg THC per serving)) was 60% in each case. In addition, the Comments result in experiment [1] is “Less bitter, smoother, more”; in experiment [2] (THC nanoemulsion), “Nice upfront bitterness reduction”.
